In patent US4734428A, “Aminoethylimidazole and cytoprotective and gastric antisecretory composition containing the same” (Jouveinal S.A., priority 1984, dated 1988):
Like-named read-outs stand apart in the source and are kept apart here.

Key:
[1] = acute toxicity (LD50, mice); details: mouse, in vivo, 14 days
Method: The acute toxicity of the products was investigated in male SWISS/IOPS mice weighing approximately 22 g. The 50% lethal dose (LD50) was calculated by the method of L. J. REED and H. MUNCH (Am. J. Hyg. 1939-37-493) 14 days following the […] treatment of batches of 10 animals per dose and on the basis of 4 to 6 doses per product. The results of this investigation are given in table 3 for the products of examples 1 to 8 and in table 4 for the products of examples 9 to 12.

gastric mucosa = assay: cytoprotection test, gastric ulceration caused by absolute ethanol; assay type: in vivo, Sprague Dawley rats; details: rat; for ED50 values relative to the two routes compared: oral versus parenteral (s.c.) route
Method: The cytoprotective activity was investigated in connection with the stressing of the gastric mucosa caused by ethanol.
The cytoprotection test was carried out in accordance with the procedure described by A. ROBERT et al (Gastroenterology 1979-77-433). Batches of six male Sprague Dawley rats, which had not received solid food for 24 hours before the test, received by the oral route 1 ml/rat of absolute ethanol, after receiving the product to be tested 30 minutes beforehand by the subcutaneous […] 1 hour beforehand by the oral route. One hour after ingesting the ethanol, the rats were killed by stretching and their stomachs were carefully removed, opened along the greater curvature, washed under running water and spread out. The ulcerations were then marked and measured under a binocular lamp. An index representing the sum of the lengths of the ulcers is then determined for each rat and the mean value of these indexes for each batch is calculated and compared with that of the control batch using the Student "t" test. The 50% effective dose (ED50) is then graphically determined when possible. In other cases, the percentage inhibition obtained with the aid of the maximum tested dose is given. The results are given in table 5 for the products of examples 1 to 8 and in table 6 for the products of examples 9 to 12.

thromboxane synthetase [2] = molecular target: T1, thromboxane synthetase (Oryctolagus cuniculus, UniProt G1TAZ9); assay: inhibition of TXB2 synthesis (thromboxane synthetase) in washed rabbit platelets; assay type: cell-based; details: for activity relative to 1-benzyl imidazole: reference 1-benzyl imidazole
T1 construct: carried out in vitro on washed rabbit platelets; endogenous in cells; host or cells: washed rabbit platelets
T1 sequence (G1TAZ9 1-530): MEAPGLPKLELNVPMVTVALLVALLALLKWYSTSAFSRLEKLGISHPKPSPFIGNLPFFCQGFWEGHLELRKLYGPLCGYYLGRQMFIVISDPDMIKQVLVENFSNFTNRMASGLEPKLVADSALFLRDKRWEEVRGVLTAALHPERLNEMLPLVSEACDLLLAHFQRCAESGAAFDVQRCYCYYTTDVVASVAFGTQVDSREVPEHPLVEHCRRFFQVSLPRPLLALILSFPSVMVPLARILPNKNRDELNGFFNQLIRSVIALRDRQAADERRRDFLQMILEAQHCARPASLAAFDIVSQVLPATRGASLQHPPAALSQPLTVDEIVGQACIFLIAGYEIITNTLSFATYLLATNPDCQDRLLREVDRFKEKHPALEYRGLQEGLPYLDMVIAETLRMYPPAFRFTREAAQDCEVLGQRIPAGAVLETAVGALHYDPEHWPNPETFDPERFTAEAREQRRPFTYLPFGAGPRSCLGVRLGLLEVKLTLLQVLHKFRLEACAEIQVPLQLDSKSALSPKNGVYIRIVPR
Method: (§1) The test performed was carried out in vitro on washed rabbit platelets. It was based on the publications of NEEDLEMAN (1977. Proc. Natl. Acad. Sci. 74, 1716) and SALMON (1982, Cardiovascular Pharmacol. of the Prostaglandins--Raven Press N.Y. pp. 7 to 22). It makes it possible both to determine the reduction of the synthesis of TXB2 and also the possible increase of the synthesis of PGE2. Thus, it is possible to determine the activity of the products on the PG:TX ratio.
(§2) The results given in the following tables are expressed in CEx%, i.e. in micromolar concentrations per liter permitting an inhibition by x% of the synthesis of TXB2. In the adjacent column, the symbol + means that the effect also causes an increase in the synthesis of PGE2.

synthesis of PGE2 = assay: increase of PGE2 synthesis in washed rabbit platelets; assay type: cell-based; set-up: key: +: the effect also causes an increase in the synthesis of PGE2; details: in vitro
Method: as §1, §2

thromboxane synthetase [3] = details: human platelets; literature; cited from earlier work
[4] = oral route, read-out: LD50 % oral route
[5] = washed rabbit platelets, in vitro, 50% inhibition of TXB2 synthesis, read-out: Inh. TX B2 CE50%
[6] = ip, read-out: LD50 % i.p. route
[7] = sc, s.c. route, 30 minutes before absolute ethanol, read-out: ED50% s.c. route
[8] = oral route, 1 hour before absolute ethanol, read-out: ED50% oral route

| Structure (SMILES) | LD50 at 336 h [1, 4] | IC50 (thromboxane synthetase [2]; [5]) | Incr. PGE2 (synthesis of PGE2) | LD50 at 336 h [1, 6] | ED50 (gastric mucosa; [7]) | further results |
| --- | --- | --- | --- | --- | --- | --- |
| CN(C)C(C)(Cn1ccnc1)c1ccc(-c2ccccc2)cc1 (stereo not drawn) [EX. 11] | 183 mg/kg | 11.2 µM | + | – | – | ED40 (gastric mucosa; sc, s.c. route, 30 minutes before absolute ethanol): 10 mg/kg |
| CCC(Cn1ccnc1-c1ccccc1)(c1ccccc1)N(C)C (stereo not drawn) [Ex. 5A] | – | 50 µM | – | – | – | – |
| COc1ccc(CC(C)(Cn2ccnc2)N(C)C)cc1 (stereo not drawn) [EX. 9, 1-[(2-p-methoxybenzyl-2-methyl)-2-N,N-dimethylaminoethyl]imidazole dihemimaleate] | 758 mg/kg | 4.5 µM | + | 231 mg/kg | – | activity relative to 1-benzyl imidazole (thromboxane synthetase [2]; washed rabbit platelets): equal to clearly superior activity |
| CCC(Cc1ccccc1)(CN(C)C)n1ccnc1 (stereo not drawn) [Ex. 7B] | 384 mg/kg | – | – | – | 8.5 mg/kg | IC35 (thromboxane synthetase [2]; washed rabbit platelets, in vitro, 35% inhibition of TXB2 synthesis, read-out: Inh. TX B2 CE35%): 100 µM |
| CN(C)C(C)(C)Cn1ccnc1 [Ex. 6A] | > 1180 mg/kg | – | – | – | – | IC41 (thromboxane synthetase [2]; washed rabbit platelets, in vitro, 41% inhibition of TXB2 synthesis, read-out: Inh. TX B2 CE41%): 50 µM |
| CN(C)C(C)(COc1ccc(Cl)cc1)Cn1ccnc1 (stereo not drawn) [EX. 10] | 86 mg/kg | 13.2 µM | + | 32 mg/kg | 10 mg/kg | – |
| c1ccc(Cn2ccnc2)cc1 [1-Benzyl-Imidazole, 1-benzyl imidazole, reference compound] | – | – | – | – | – | IC50 (thromboxane synthetase [2]): 13.4 µM; thromboxane synthetase inhibition in words (thromboxane synthetase [3]): thromboxane synthetase inhibitor |
| CCC(Cn1cnc(-c2ccccc2)c1-c1ccccc1)(c1ccccc1)N(C)C (stereo not drawn) [Ex. 3A] | > 1150 mg/kg | – | – | – | – | – |
| CCC(Cn1ccnc1)(c1ccccc1)N(C)C (stereo not drawn) [Ex. 1A, 1-[(2-phenyl-2-ethyl)-2-N,N-dimethylaminoethyl]-imidazole] | 559 mg/kg | 3.7 µM | + | 326 mg/kg | 11 mg/kg | ED50 (gastric mucosa; [8]): 13 mg/kg; ED50 values relative to the two routes compared (gastric mucosa): roughly equivalent; activity relative to 1-benzyl imidazole (thromboxane synthetase [2]; washed rabbit platelets): equal to clearly superior activity |
| CCC(Cn1ccnc1C)(c1ccccc1)N(C)C (stereo not drawn) [Ex. 2A, 1-[(2-phenyl-2-ethyl)-2-N,N-dimethylaminoethyl]-2-methylimidazole] | 500 mg/kg | – | – | 157 mg/kg | 12.6 mg/kg | ED50 (gastric mucosa; [8]): 12 mg/kg; ED50 values relative to the two routes compared (gastric mucosa): roughly equivalent; IC10 (thromboxane synthetase [2]; washed rabbit platelets, in vitro, 10% inhibition of TXB2 synthesis, read-out: Inh. TX B2 CE10%): 50 µM |
| CCC(CN(C)C)(c1ccccc1)n1ccnc1C (stereo not drawn) [Ex. 2B, 1-[(1-phenyl-1-ethyl)-2-N,N-dimethylaminoethyl]-2-methylimidazole] | 393 mg/kg | – | – | 137 mg/kg | 10 mg/kg | ED50 (gastric mucosa; [8]): 12 mg/kg; ED50 values relative to the two routes compared (gastric mucosa): roughly equivalent; IC18 (thromboxane synthetase [2]; washed rabbit platelets, in vitro, 18% inhibition of TXB2 synthesis, read-out: Inh. TX B2 CE18%): 50 µM |
| CCc1nc(C)cn1C(CC)(CN(C)C)c1ccccc1 (stereo not drawn) [Ex. 4B] | 298 mg/kg | – | – | 47 mg/kg | 4 mg/kg | – |
| CCCCCC(CN(C)C)(c1ccccc1)n1ccnc1 (stereo not drawn) [Ex. 8B] | 562 mg/kg | 2.15 µM | + | 346 mg/kg | 9 mg/kg | activity relative to 1-benzyl imidazole (thromboxane synthetase [2]; washed rabbit platelets): equal to clearly superior activity |
| CN(C)CC(C)(C)n1ccnc1 [Ex. 6B] | > 1180 mg/kg | 50 µM | – | – | – | – |
| CCCCCC(Cn1ccnc1)(c1ccccc1)N(C)C (stereo not drawn) [Ex. 8A] | 287 mg/kg | 0.56 µM | + | – | 25 mg/kg | activity relative to 1-benzyl imidazole (thromboxane synthetase [2]; washed rabbit platelets): equal to clearly superior activity |
| CCC(CN(C)C)(c1ccccc1)n1cnc(-c2ccccc2)c1-c1ccccc1 (stereo not drawn) [Ex. 3B] | > 1150 mg/kg | – | – | – | – | ED50 (gastric mucosa; [8]): 26 mg/kg |
| CCC(Cn1ccnc1)(c1ccccc1)N(C)C (single isomer, unassigned) [EX. 12, 1-[(2-phenyl-2-ethyl)-2-N,N-dimethylaminoethyl]-imidazole] | 780 mg/kg | 11.3 µM | + | – | 5.3 mg/kg | – |
| CCC(Cc1ccccc1)(Cn1ccnc1)N(C)C (stereo not drawn) [Ex. 7A] | 480 mg/kg | < 1 µM | + | – | 26.6 mg/kg | – |
| CCC(CN(C)C)(c1ccccc1)n1ccnc1 (stereo not drawn) [Ex. 1B, 1-[(1-phenyl-1-ethyl)-2-N,N-dimethylaminoethyl]-imidazole] | 285 mg/kg | 17.4 µM | + | 145 mg/kg | 8.1 mg/kg | ED50 (gastric mucosa; [8]): 7.1 mg/kg; ED50 values relative to the two routes compared (gastric mucosa): roughly equivalent |
| CCC(CN(C)C)(c1ccccc1)n1ccnc1-c1ccccc1 (stereo not drawn) [Ex. 5B] | 840 mg/kg | – | – | – | – | IC20 (thromboxane synthetase [2]; washed rabbit platelets, in vitro, 20% inhibition of TXB2 synthesis, read-out: Inh. TX B2 CE20%): 50 µM |
